How the values were obtained:
Format in all cases: in vivo
[1] = system: slender amaranth (Amaranthus viridis L.); assay: Test Example 2: herbicidal effect by soil application to upland field; settings: soil surface spray, upland field soil, 1,000 g active ingredient per hectare, 21st day after application
How it was run: (§1)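 A standard visual rating of herbicidal effect, made 21 days after treatment, gives the value. Treatment consisted of a uniform spray of water-diluted wettable powder on the soil covering newly sown seeds, equivalent to 1,000 g active ingredient and 1,000 liters per hectare.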

[2] = system: barnyardgrass (Echinochloa crus-galli (L.) P. Beauv. var. crus-galli); assay: as above; settings: soil surface spray, upland field soil, 1,000 g active ingredient per hectare, 21st day after application
How it was run: as §1

[3] = system: green foxtail (Setaria viridis (L.) P. Beauv.); assay: as above; settings: soil surface spray, upland field soil, 1,000 g active ingredient per hectare, 21st day after application
How it was run: as §1

[4] = system: velvetleaf (Abutilon theophrasti medicus); assay: as above; settings: soil surface spray, upland field soil, 1,000 g active ingredient per hectare, 21st day after application
How it was run: as §1

[5] = system: slender amaranth (Amaranthus viridis L.); assay: Test Example 3: herbicidal effect by application to upland field (foliage treatment); settings: 14th day after application; for herbicidal effect (index), Slender Amaranth: foliage treatment, plants grown two weeks, 1,000 g active ingredient per hectare; for herbicidal effect, Slender Amaranth: foliage treatment, 1,000 g active ingredient per 1 hectare, greenhouse
How it was run: (§2)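 Effect scores come from a standard grading 14 days after plants, grown from seed for two weeks in field soil in a greenhouse, were sprayed over the top with wettable powder in water at 1,000 g active ingredient per hectare.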

[6] = system: barnyardgrass (Echinochloa crus-galli (L.) P. Beauv. var. crus-galli); assay: as above; settings: 14th day after application; for herbicidal effect (index), Barnyardgrass: foliage treatment, plants grown two weeks, 1,000 g active ingredient per hectare; for herbicidal effect, Barnyardgrass: foliage treatment, 1,000 g active ingredient per 1 hectare, greenhouse
How it was run: as §2

[7] = system: green foxtail (Setaria viridis (L.) P. Beauv.); assay: as above; settings: 14th day after application; for herbicidal effect (index), Green Foxtail: foliage treatment, plants grown two weeks, 1,000 g active ingredient per hectare; for herbicidal effect, Green Foxtail: foliage treatment, 1,000 g active ingredient per 1 hectare, greenhouse
How it was run: as §2

[8] = system: velvetleaf (Abutilon theophrasti medicus); assay: as above; settings: 14th day after application; for herbicidal effect (index), Velvetleaf: foliage treatment, plants grown two weeks, 1,000 g active ingredient per hectare; for herbicidal effect, Velvetleaf: foliage treatment, 1,000 g active ingredient per 1 hectare, greenhouse
How it was run: as §2

[9] = system: heartshape false pickerelweed (Monochoria vaginalis (Burm.f.) C.Presl); assay: Test Example 1: herbicidal effect by soil application to paddy field; settings: paddy field soil application; active ingredient 1,000 g per 1 hectare; wettable powder added dropwise to water surface the day after sowing; examined on the 21st day after application
How it was run: (§3)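 Under greenhouse conditions, seeds sown on puddled paddy soil in 100 cm2 pots under 3 cm of standing water received the test compound; injury was assessed with a standard scoring scheme three weeks (day 21) after treatment.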

[10] = system: Japanese bulrush (Scirpus juncoides Roxb.); assay: as above; settings: paddy field soil application; active ingredient 1,000 g per 1 hectare; wettable powder added dropwise to water surface the day after sowing; examined on the 21st day after application
How it was run: as §3

[11] = system: early watergrass (Echinochloa oryzicola Vasing); assay: as above; settings: paddy field soil application; active ingredient 1,000 g per 1 hectare; wettable powder added dropwise to water surface the day after sowing; examined on the 21st day after application
How it was run: as §3

Compound	herbicidal effect (index), Slender Amaranth [1]	herbicidal effect (index), Barnyardgrass [2]	herbicidal effect (index), Green Foxtail [3]	herbicidal effect (index), Velvetleaf [4]	herbicidal effect (index), Slender Amaranth [5]	herbicidal effect (index), Barnyardgrass [6]	herbicidal effect (index), Green Foxtail [7]	herbicidal effect (index), Velvetleaf [8]	herbicidal effect, Monochoria vaginalis (Burm. f.) C. Presl [9]	herbicidal effect, Scirpus juncoides Roxb. [10]	herbicidal effect, Echinochloa oryzicola Vasing [11]	herbicidal effect, Slender Amaranth [5]	herbicidal effect, Barnyardgrass [6]	herbicidal effect, Green Foxtail [7]	herbicidal effect, Velvetleaf [8]
CCCCCCn1c(C(F)(F)F)ccc(C(=O)C2=C(O)CCCC2=O)c1=O [I-9]	5 (90% or more of herbicidal effect and crop phytotoxicity)	4 (70 to less than 90% of herbicidal effect and crop phytotoxicity)	4 (70 to less than 90% of herbicidal effect and crop phytotoxicity)	5 (90% or more of herbicidal effect and crop phytotoxicity)	5 (90% or more of herbicidal effect and crop phytotoxicity)	5 (90% or more of herbicidal effect and crop phytotoxicity)	4 (70 to less than 90% of herbicidal effect and crop phytotoxicity)	5 (90% or more of herbicidal effect and crop phytotoxicity)	5 (90% or more of herbicidal effect and crop phytotoxicity)	5 (90% or more of herbicidal effect and crop phytotoxicity)	5 (90% or more of herbicidal effect and crop phytotoxicity)	–	–	–	–
CCn1ncc(C(=O)c2ccc(C(F)(F)F)n(CCOCCOC)c2=O)c1O [IV-203]	5 (90% or more of herbicidal effect and crop phytotoxicity)	5 (90% or more of herbicidal effect and crop phytotoxicity)	5 (90% or more of herbicidal effect and crop phytotoxicity)	5 (90% or more of herbicidal effect and crop phytotoxicity)	–	–	–	–	5 (90% or more of herbicidal effect and crop phytotoxicity)	5 (90% or more of herbicidal effect and crop phytotoxicity)	5 (90% or more of herbicidal effect and crop phytotoxicity)	5 (90% or more of herbicidal effect and crop phytotoxicity)	5 (90% or more of herbicidal effect and crop phytotoxicity)	5 (90% or more of herbicidal effect and crop phytotoxicity)	5 (90% or more of herbicidal effect and crop phytotoxicity)
O=C1CCCC(O)=C1C(=O)c1ccc(C(F)(F)F)n(-c2cccc(C(F)(F)F)c2)c1=O [I-85]	5 (90% or more of herbicidal effect and crop phytotoxicity)	5 (90% or more of herbicidal effect and crop phytotoxicity)	5 (90% or more of herbicidal effect and crop phytotoxicity)	5 (90% or more of herbicidal effect and crop phytotoxicity)	5 (90% or more of herbicidal effect and crop phytotoxicity)	5 (90% or more of herbicidal effect and crop phytotoxicity)	5 (90% or more of herbicidal effect and crop phytotoxicity)	5 (90% or more of herbicidal effect and crop phytotoxicity)	5 (90% or more of herbicidal effect and crop phytotoxicity)	5 (90% or more of herbicidal effect and crop phytotoxicity)	5 (90% or more of herbicidal effect and crop phytotoxicity)	–	–	–	–
O=C1CCCC(O)=C1C(=O)c1ccc(C(F)(F)F)n(NCC2CCCO2)c1=O (stereo not shown) [I-170]	5 (90% or more of herbicidal effect and crop phytotoxicity)	5 (90% or more of herbicidal effect and crop phytotoxicity)	5 (90% or more of herbicidal effect and crop phytotoxicity)	5 (90% or more of herbicidal effect and crop phytotoxicity)	–	–	–	–	5 (90% or more of herbicidal effect and crop phytotoxicity)	5 (90% or more of herbicidal effect and crop phytotoxicity)	5 (90% or more of herbicidal effect and crop phytotoxicity)	5 (90% or more of herbicidal effect and crop phytotoxicity)	5 (90% or more of herbicidal effect and crop phytotoxicity)	4 (70 to less than 90% of herbicidal effect and crop phytotoxicity)	5 (90% or more of herbicidal effect and crop phytotoxicity)
O=C1CCCC(O)=C1C(=O)c1ccc(C(F)(F)F)n(CS(=O)(=O)CC2CC2)c1=O [I-58]	5 (90% or more of herbicidal effect and crop phytotoxicity)	5 (90% or more of herbicidal effect and crop phytotoxicity)	5 (90% or more of herbicidal effect and crop phytotoxicity)	5 (90% or more of herbicidal effect and crop phytotoxicity)	5 (90% or more of herbicidal effect and crop phytotoxicity)	5 (90% or more of herbicidal effect and crop phytotoxicity)	5 (90% or more of herbicidal effect and crop phytotoxicity)	5 (90% or more of herbicidal effect and crop phytotoxicity)	5 (90% or more of herbicidal effect and crop phytotoxicity)	5 (90% or more of herbicidal effect and crop phytotoxicity)	5 (90% or more of herbicidal effect and crop phytotoxicity)	–	–	–	–
O=C1CCCC(O)=C1C(=O)c1ccc(C(F)(F)F)n(NCC2CC2)c1=O [I-164]	5 (90% or more of herbicidal effect and crop phytotoxicity)	5 (90% or more of herbicidal effect and crop phytotoxicity)	5 (90% or more of herbicidal effect and crop phytotoxicity)	5 (90% or more of herbicidal effect and crop phytotoxicity)	–	–	–	–	5 (90% or more of herbicidal effect and crop phytotoxicity)	5 (90% or more of herbicidal effect and crop phytotoxicity)	5 (90% or more of herbicidal effect and crop phytotoxicity)	5 (90% or more of herbicidal effect and crop phytotoxicity)	5 (90% or more of herbicidal effect and crop phytotoxicity)	5 (90% or more of herbicidal effect and crop phytotoxicity)	5 (90% or more of herbicidal effect and crop phytotoxicity)
Cc1nn(C)c(O)c1C(=O)c1ccc(C(F)(F)F)n(-c2cc(F)cc(F)c2)c1=O [IV-81]	5 (90% or more of herbicidal effect and crop phytotoxicity)	5 (90% or more of herbicidal effect and crop phytotoxicity)	5 (90% or more of herbicidal effect and crop phytotoxicity)	5 (90% or more of herbicidal effect and crop phytotoxicity)	–	–	–	–	5 (90% or more of herbicidal effect and crop phytotoxicity)	3 (50 to less than 70% of herbicidal effect and crop phytotoxicity)	5 (90% or more of herbicidal effect and crop phytotoxicity)	5 (90% or more of herbicidal effect and crop phytotoxicity)	4 (70 to less than 90% of herbicidal effect and crop phytotoxicity)	4 (70 to less than 90% of herbicidal effect and crop phytotoxicity)	5 (90% or more of herbicidal effect and crop phytotoxicity)
O=C1CCCC(O)=C1C(=O)c1ccc(C(F)(F)F)n(CCC=C(Cl)Cl)c1=O [I-26]	5 (90% or more of herbicidal effect and crop phytotoxicity)	5 (90% or more of herbicidal effect and crop phytotoxicity)	5 (90% or more of herbicidal effect and crop phytotoxicity)	5 (90% or more of herbicidal effect and crop phytotoxicity)	5 (90% or more of herbicidal effect and crop phytotoxicity)	4 (70 to less than 90% of herbicidal effect and crop phytotoxicity)	4 (70 to less than 90% of herbicidal effect and crop phytotoxicity)	5 (90% or more of herbicidal effect and crop phytotoxicity)	5 (90% or more of herbicidal effect and crop phytotoxicity)	5 (90% or more of herbicidal effect and crop phytotoxicity)	5 (90% or more of herbicidal effect and crop phytotoxicity)	–	–	–	–
